Patent US20230117034A1, “PYRAZOLOTRIAZINES” (Bayer Aktiengesellschaft, priority 2019, published 2023)

Tests used:
CDK2/CycE = target: T1, CDK2/CycE (Homo sapiens, UniProt P24941); assay: CDK2/CycE kinase assay (TR-FRET, 2 mM ATP); format: biochemical; conditions: 2 mM ATP (high ATP); median; read-out: CDK2/CyclinE, 2 mM ATP (high ATP), IC50 (median)
T1 construct: purchased ProQinase GmbH (Freiburg, Germany); host or cells: insect cells (Sf9)
Summary of the method: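 GST-tagged human CDK2 and CycE from Sf9 cells, about 10 ng/ml, pre-incubated 15 min at 22 °C with compound in Tris/HCl pH 8.0 buffer. Reaction with 2 mM ATP and 0.75 µM biotinylated peptide for 25 min at 22 °C. Phospho-RB antibody TR-FRET (665/620 nm ratio) read after 1 h; data normalised to no-inhibitor and no-enzyme controls.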

CDK9/CycT1 = target: T2, CDK9/CycT1 (Homo sapiens, UniProt P50750); assay: CDK9/CycT1 high ATP kinase assay (TR-FRET, 2 mM ATP); format: biochemical; conditions: 2 mM ATP (high ATP); median; read-out: CDK9/CyclinT1, 2 mM ATP (high ATP), IC50 (median)
T2 construct: Recombinant full-length His-tagged human CDK9 and CycT1; purchased Life Technologies PV4131; host or cells: insect cells
Summary of the method: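 Full-length His-tagged human CDK9/CycT1 (insect cell, ~0.5 μg/mL) preincubated 15 min at 22 °C with compound in Tris pH 8.0, MgCl2, DTT buffer before reaction with biotinylated peptide substrate at high ATP (2 mM).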

[1] = target: T3, CDK12 (nuclear staining in CAL-120 cells) (Homo sapiens, UniProt Q9NYV4); assay: CDK12 nuclear protein level: immunofluorescence/high content analysis (CAL-120); format: cell-based; conditions: for DC50: CAL-120 cells, 24 h, immunofluorescence, 50% reduction of nuclear CDK12 staining intensity, median, read-out: CDK12 degradation IF, DC50- [mol/l] (median); for (IC50 CDK12 high ATP) to (Degradation DC50 CDK12) ratio: ratio of IC50 CDK12 high ATP kinase assay to DC50 CDK12 degradation (IF, CAL-120)
T3 construct: endogenous in cells; host or cells: CAL-120 human breast cancer cells (DSMZ ACC 459)
Summary of the method: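 CAL-120 cells were treated with compound for 24 h at 37 °C, fixed with PFA and immunostained for CDK12. Nuclear CDK12 intensity was quantified by automated image analysis and normalized to DMSO and control. DC50 is the concentration giving 50% reduction of nuclear staining.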

T3 sequence (Q9NYV4 whole entry): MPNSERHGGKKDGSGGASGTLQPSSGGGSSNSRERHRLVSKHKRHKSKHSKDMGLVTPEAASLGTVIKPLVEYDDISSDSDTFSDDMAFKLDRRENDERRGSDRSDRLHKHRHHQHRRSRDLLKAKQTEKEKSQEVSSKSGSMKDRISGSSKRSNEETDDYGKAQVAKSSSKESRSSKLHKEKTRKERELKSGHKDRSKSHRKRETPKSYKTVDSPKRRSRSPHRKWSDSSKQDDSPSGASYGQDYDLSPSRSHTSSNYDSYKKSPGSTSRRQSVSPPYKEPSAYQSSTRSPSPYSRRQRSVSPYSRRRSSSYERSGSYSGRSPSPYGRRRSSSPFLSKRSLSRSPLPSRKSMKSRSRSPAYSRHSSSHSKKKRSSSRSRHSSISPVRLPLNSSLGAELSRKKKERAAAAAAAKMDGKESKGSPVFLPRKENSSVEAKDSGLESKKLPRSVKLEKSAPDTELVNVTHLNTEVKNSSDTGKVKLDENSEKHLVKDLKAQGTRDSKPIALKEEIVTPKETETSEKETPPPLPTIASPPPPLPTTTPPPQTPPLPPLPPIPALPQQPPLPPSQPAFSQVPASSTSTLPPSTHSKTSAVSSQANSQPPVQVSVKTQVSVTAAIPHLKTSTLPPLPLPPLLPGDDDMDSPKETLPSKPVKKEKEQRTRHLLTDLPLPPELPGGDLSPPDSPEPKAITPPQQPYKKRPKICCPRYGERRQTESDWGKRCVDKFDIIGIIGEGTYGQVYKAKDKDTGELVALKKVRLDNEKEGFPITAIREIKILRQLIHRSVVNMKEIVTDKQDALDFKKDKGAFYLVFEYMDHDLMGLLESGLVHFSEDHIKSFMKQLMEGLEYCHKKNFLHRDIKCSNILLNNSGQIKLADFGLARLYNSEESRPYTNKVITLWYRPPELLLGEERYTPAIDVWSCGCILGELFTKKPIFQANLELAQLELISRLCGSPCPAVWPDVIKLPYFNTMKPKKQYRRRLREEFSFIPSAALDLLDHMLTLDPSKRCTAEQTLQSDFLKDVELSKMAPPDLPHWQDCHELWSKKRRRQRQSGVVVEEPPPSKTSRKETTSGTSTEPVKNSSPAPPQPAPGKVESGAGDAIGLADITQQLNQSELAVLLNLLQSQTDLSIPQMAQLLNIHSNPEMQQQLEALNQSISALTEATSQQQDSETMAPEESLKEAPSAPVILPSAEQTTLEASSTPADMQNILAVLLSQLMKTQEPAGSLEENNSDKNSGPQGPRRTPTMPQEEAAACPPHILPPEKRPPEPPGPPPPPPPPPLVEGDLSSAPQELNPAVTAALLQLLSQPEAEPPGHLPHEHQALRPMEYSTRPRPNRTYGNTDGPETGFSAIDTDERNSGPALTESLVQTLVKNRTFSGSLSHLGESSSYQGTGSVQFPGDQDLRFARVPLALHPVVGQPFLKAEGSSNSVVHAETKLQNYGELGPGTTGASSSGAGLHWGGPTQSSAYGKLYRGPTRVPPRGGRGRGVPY
T3 sequence (O75909 whole entry partner): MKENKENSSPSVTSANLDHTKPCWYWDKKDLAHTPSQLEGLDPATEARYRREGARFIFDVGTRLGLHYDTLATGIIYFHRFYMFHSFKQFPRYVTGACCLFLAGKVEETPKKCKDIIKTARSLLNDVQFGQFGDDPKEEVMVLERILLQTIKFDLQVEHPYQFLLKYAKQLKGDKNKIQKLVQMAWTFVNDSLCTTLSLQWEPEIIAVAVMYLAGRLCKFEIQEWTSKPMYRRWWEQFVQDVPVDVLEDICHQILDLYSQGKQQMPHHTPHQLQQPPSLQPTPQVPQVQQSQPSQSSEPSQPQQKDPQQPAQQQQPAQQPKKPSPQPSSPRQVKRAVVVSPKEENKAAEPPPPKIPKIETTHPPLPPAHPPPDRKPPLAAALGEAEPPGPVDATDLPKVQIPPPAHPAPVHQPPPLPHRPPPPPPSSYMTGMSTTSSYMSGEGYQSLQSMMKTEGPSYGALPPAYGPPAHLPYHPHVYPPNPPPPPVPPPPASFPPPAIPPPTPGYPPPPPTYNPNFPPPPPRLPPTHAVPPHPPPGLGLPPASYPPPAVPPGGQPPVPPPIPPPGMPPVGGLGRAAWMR
T2 sequence (P50750 whole entry): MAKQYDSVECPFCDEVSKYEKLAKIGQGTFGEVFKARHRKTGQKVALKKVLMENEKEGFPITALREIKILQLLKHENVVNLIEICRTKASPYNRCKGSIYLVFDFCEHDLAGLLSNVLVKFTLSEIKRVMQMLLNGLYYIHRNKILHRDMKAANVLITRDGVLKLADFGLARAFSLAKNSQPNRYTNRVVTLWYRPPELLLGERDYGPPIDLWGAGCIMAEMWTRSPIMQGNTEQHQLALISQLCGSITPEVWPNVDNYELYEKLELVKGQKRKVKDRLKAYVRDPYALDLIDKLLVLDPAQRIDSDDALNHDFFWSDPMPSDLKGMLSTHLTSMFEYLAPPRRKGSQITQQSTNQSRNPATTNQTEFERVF
T2 sequence (O60563 whole entry partner): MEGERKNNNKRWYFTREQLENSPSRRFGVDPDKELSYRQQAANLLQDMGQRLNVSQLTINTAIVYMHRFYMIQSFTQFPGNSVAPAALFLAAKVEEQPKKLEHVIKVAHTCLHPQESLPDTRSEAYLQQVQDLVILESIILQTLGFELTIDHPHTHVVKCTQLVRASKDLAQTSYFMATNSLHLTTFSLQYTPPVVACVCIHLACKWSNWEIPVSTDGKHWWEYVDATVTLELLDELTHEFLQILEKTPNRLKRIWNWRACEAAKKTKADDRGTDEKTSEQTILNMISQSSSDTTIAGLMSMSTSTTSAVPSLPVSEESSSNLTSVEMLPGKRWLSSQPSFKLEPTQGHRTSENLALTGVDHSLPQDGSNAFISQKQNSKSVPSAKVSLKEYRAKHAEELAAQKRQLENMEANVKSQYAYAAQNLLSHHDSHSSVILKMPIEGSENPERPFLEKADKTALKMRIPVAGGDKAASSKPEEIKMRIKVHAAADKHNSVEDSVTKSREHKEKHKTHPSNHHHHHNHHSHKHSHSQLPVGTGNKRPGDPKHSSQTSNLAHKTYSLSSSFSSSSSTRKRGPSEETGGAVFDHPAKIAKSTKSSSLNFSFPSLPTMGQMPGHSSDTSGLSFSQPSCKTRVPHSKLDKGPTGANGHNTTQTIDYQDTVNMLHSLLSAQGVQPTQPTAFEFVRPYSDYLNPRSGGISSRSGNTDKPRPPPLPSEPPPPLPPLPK

| Compound | IC50 (CDK2/CycE) [µM] | IC50 (CDK9/CycT1) [µM] | DC50 [1] [nM] | (IC50 CDK12 high ATP) to (Degradation DC50 CDK12) ratio [1] |
| --- | --- | --- | --- | --- |
| Cn1cc(-c2cnn3c(NCc4nc5cc(Cl)c(Cl)cc5[nH]4)nc(N4CCOCC4)nc23)cn1 [Example 419, N-[(5,6-dichloro-1H-benzimidazol-2-yl)methyl]-8-(1-methyl-1H-pyrazol-4-yl)-2-(morpholin-4-yl)pyrazolo[1,5-a][1,3,5]triazin-4-amine] | > 20 | > 20 | 38.7 | >517 |
| CN1CCN(c2nc(NCc3nc4c(F)c(F)ccc4[nH]3)n3ncc(C4CC4(F)F)c3n2)CC1 (centres unmarked) [Example 429, N-[(4,5-difluoro-1H-benzimidazol-2-yl)methyl]-8-(2,2-difluorocyclopropyl)-2-(4-methylpiperazin-1-yl)pyrazolo[1,5-a][1,3,5]triazin-4-amine] | > 20 | > 20 | 4.32 | >4626 |
| Clc1cc2nc(CNc3nc(N4CCOCC4)nc4c(-c5cncs5)cnn34)[nH]c2cc1Cl [Example 443, N-[(5,6-dichloro-1H-benzimidazol-2-yl)methyl]-2-(morpholin-4-yl)-8-(1,3-thiazol-5-yl)pyrazolo[1,5-a][1,3,5]triazin-4-amine] | > 20 | > 20 | 4.23 | 941 |
| Cn1cc(-c2cnn3c(NCc4nc5c(F)c(F)ccc5[nH]4)nc(N4CCOCC4)nc23)cn1 [Example 418, N-[(4,5-difluoro-1H-benzimidazol-2-yl)methyl]-8-(1-methyl-1H-pyrazol-4-yl)-2-(morpholin-4-yl)pyrazolo[1,5-a][1,3,5]triazin-4-amine] | > 20 | > 20 | 39 | >513 |
| FC(F)n1cc(-c2cnn3c(NCc4nc5cc(Cl)c(Cl)cc5[nH]4)nc(N4CCOCC4)nc23)cn1 [Example 423, N-[(5,6-dichloro-1H-benzimidazol-2-yl)methyl]-8-[1-(difluoromethyl)-1H-pyrazol-4-yl]-2-(morpholin-4-yl)pyrazolo[1,5-a][1,3,5]triazin-4-amine] | > 20 | > 20 | 17.8 | >720 |
| CC(C)c1cnn2c(NCc3ncc(-c4ccccc4)[nH]3)nc(N3CCCCC3)nc12 [Example 36, N-[(5-phenyl-1H-imidazol-2-yl)methyl]-2-(piperidin-1-yl)-8-(propan-2-yl)pyrazolo[1,5-a][1,3,5]triazin-4-amine] | > 20 | > 20 | 86.5 | >231 |
| Fc1ccc2[nH]c(CNc3nc(N4CCOCC4)nc4c(-c5ccnnc5)cnn34)nc2c1F [Example 417, N-[(4,5-difluoro-1H-benzimidazol-2-yl)methyl]-2-(morpholin-4-yl)-8-(pyridazin-4-yl)pyrazolo[1,5-a][1,3,5]triazin-4-amine] | > 20 | > 1.63 | 2.75 | >2815 |
| COc1cccc2[nH]c(CNc3nc(N4CCOCC4)nc4c(-c5nccs5)cnn34)nc12 [Example 414, N-[(4-methoxy-1H-benzimidazol-2-yl)methyl]-2-(morpholin-4-yl)-8-(1,3-thiazol-2-yl)pyrazolo [1,5-a][1,3,5]triazin-4-amine] | > 20 | > 20 | 32.5 | >176 |
| Cc1cnn2c(NCc3nc4ccccc4[nH]3)nc(N3CC4CCC(C3)N4)nc12 [Example 401, N-[(1H-benzimidazol-2-yl)methyl]-2-(3,8-diazabicyclo[3.2.1]octan-3-yl)-8-methylpyrazolo[1,5-a][1,3,5]triazin-4-amine] | > 20 | > 20 | 30.8 | >649 |
| Clc1cc2nc(CNc3nc(N4CCOCC4)nc4c(-c5cscn5)cnn34)[nH]c2cc1Cl [Example 424, N-[(5,6-dichloro-1H-benzimidazol-2-yl)methyl]-2-(morpholin-4-yl)-8-(1,3-thiazol-4-yl)pyrazolo [1,5-a][1,3,5]triazin-4-amine] | > 20 | > 20 | 38.1 | >524 |

More lines, now with the values ahead:

| IC50 (CDK2/CycE) [µM] | IC50 (CDK9/CycT1) [µM] | DC50 [1] [nM] | (IC50 CDK12 high ATP) to (Degradation DC50 CDK12) ratio [1] | Compound |
| --- | --- | --- | --- | --- |
| > 20 | > 20 | 6.67 | >2996 | Clc1cc2nc(CNc3nc(N4CCOCC4)nc4c(-c5ccnnc5)cnn34)[nH]c2cc1Cl.O=C(O)C(F)(F)F [Example 440, trifluoroacetic acid N-[(5,6-dichloro-1H-benzimidazol-2-yl)methyl]-2-(morpholin-4-yl)-8-(pyridazin-4-yl)pyrazolo[1,5-a][1,3,5]triazin-4-amine] |
| 1.13 | 0.885 | 1.71 | 871 | Fc1cccc(-c2nnc(CNc3nc(N4CCOCC4)nc4c(Br)cnn34)[nH]2)c1 [Example 44, 8-bromo-N-{[5-(3-fluorophenyl)-4H-1,2,4-triazol-3-yl]methyl}-2-(morpholin-4-yl)pyrazolo[1,5-a][1,3,5]triazin-4-amine] |
| 5.37 | 3.41 | 69.2 | 32 | Clc1ccc(-c2nnc(CNc3nc(N4CCOCC4)nc4c(Br)cnn34)[nH]2)cc1 [Example 45, 8-bromo-N-{[5-(4-chlorophenyl)-4H-1,2,4-triazol-3-yl]methyl}-2-(morpholin-4-yl)pyrazolo[1,5-a][1,3,5]triazin-4-amine] |
| 5.23 | 4.23 | 14.7 | 127 | FC(F)(F)c1cnn2c(NCc3nnc(-c4ccccc4)[nH]3)nc(N3CCOCC3)nc12 [Example 427, 2-(morpholin-4-yl)-N-[(5-phenyl-4H-1,2,4-triazol-3-yl)methyl]-8-(trifluoromethyl)pyrazolo[1,5-a][1,3,5]triazin-4-amine] |
| 2.65 | 1.84 | 20.5 | 80 | FC(F)(F)c1cccc(-c2nnc(CNc3nc(N4CCOCC4)nc4c(Br)cnn34)[nH]2)c1 [Example 52, 8-bromo-2-(morpholin-4-yl)-N-({5-[3-(trifluoromethyl)phenyl]-4H-1,2,4-triazol-3-yl}methyl)pyrazolo[1,5-a][1,3,5]triazin-4-amine] |
| > 19.7 | > 20 | 56.8 | >352 | Brc1cnn2c(NCc3nc4ccccc4[nH]3)nc(OCC3CC3)nc12 [Example 408, N-[(1H-benzimidazol-2-yl)methyl]-8-bromo-2-(cyclopropylmethoxy)pyrazolo[1,5-a][1,3,5]triazin-4-amine] |
| 15 | > 20 | 125 | >160 | Brc1cnn2c(NCc3nc4ccccc4[nH]3)nc(OC3CCCCC3)nc12 [Example 406, N-[(1H-benzimidazol-2-yl)methyl]-8-bromo-2-(cyclohexyloxy)pyrazolo[1,5-a][1,3,5]triazin-4-amine] |
| 2.33 | 2.01 | 12.5 | 224 | COc1cccc(-c2nnc(CNc3nc(N4CCOCC4)nc4c(Br)cnn34)[nH]2)c1 [Example 50, 8-bromo-N-{[5-(3-methoxyphenyl)-4H-1,2,4-triazol-3-yl]methyl}-2-(morpholin-4-yl)pyrazolo[1,5-a][1,3,5]triazin-4-amine] |
| > 15.3 | > 20 | 42.8 | >467 | CC(C)c1cnn2c(NCc3nnc(-c4ccccc4)[nH]3)nc(N3CCN(C)CC3)nc12 [Example 37, 2-(4-methylpiperazin-1-yl)-N-[(5-phenyl-4H-1,2,4-triazol-3-yl)methyl]-8-(propan-2-yl)pyrazolo[1,5-a][1,3,5]triazin-4-amine] |
| > 1.63 | > 20 | 4.06 | – | Fc1ccc(-c2nnc(CNc3nc(N4CCOCC4)nc4c(Br)cnn34)[nH]2)c(F)c1 [Example 41, 8-bromo-N-{[5-(2,4-difluorophenyl)-4H-1,2,4-triazol-3-yl]methyl}-2-(morpholin-4-yl)pyrazolo[1,5-a][1,3,5]triazin-4-amine] |
| 8.3 | > 20 | 37.2 | >153 | CCNc1nc(NCc2nnc(-c3ccccc3)[nH]2)n2ncc(C(C)C)c2n1 [Example 38, N^2-ethyl-N^4-[(5-phenyl-4H-1,2,4-triazol-3-yl)methyl]-8-(propan-2-yl)pyrazolo[1,5-a][1,3,5]triazine-2,4-diamine] |
